The series can be described thus: Stability of stock solutions. The series is classed as physicochemical. The settings on record: DMSO stock solution, stock solution 1.00 mg/mL, n = 6, read-out: Remaining (%, Mean ± SD). On the procedure:
Stock solutions of ISO and trans-stilbene (internal standard, IS) were prepared in DMSO at a final concentration of 1 mg/mL. These solutions were stored at −20 °C and protected from light. The calibration standard and quality control (QC) samples were prepared by serial dilution of the ISO stock solution with pooled blank murine plasma or respective tissue homogenate.
The stability of ISO was evaluated under various storage conditions. Stock solution stability was assessed after storage at room temperature (25 °C) and –20 °C. The stability of ISO in plasma was examined under the following conditions: short-term storage (25 °C for 24 h), long-term storage (–80 °C for 52 days), three freeze–thaw cycles, and post-preparative stability (samples kept in an autosampler at 4 °C for more than 24 h). As it is difficult to evaluate ISO stability directly in tissues, only the short-term stability in tissue homogenates was assessed (6 h on ice). Similarly, post-preparative stability in processed tissue samples was assessed using liver homogenate as a representative, due to the complexity of the hepatic matrix. Stability was considered acceptable if 85–115% of the initial ISO concentration remained.

The structures appear in SMILES notation.

Turning to `COc1cc(/C=C/c2cc(O)cc(O)c2)ccc1O` [ISO, trans-3,5,4′-trihydroxy-3′-methoxystilbene], the fraction remaining at 24 h, 1 mg/mL (stored at room temperature for 24 h) was found to be 94.6 ± 0.7%. Besides, the share remaining at 480 h, 1 mg/mL (stored at −20 °C for 20 days) was 105 ± 1.4%.

Values taken from paper PMC12430278, “A Simple and Reliable Method for the Determination of Isorhapontigenin in Murine Biological Matrices: Application in a Tissue Distribution Study” (Molecules, 2025).
